Test results from patent publication US9499496B2, “Inhibitors of respiratory syncytial virus” (University of Kansas, priority 2012, dated 2016).
Where “and” joins values, the source holds several entries; their conditions need not be identical. Identical values can stand only once. Like-named read-outs stand apart in the source and are kept apart here. Marks after values point to notes of the source that are not given here.

What was measured:
[1] = test system: Ricerca LeadProfiling screen made up of 67 assays; test: Ricerca LeadProfiling screen, all other targets of the 67 assays; format: binding; conditions: 10 μM, duplicate
vaccinia = format: cell-based
dengue viruses = format: cell-based
RSV [2] = test: Time of addition CPE assay; format: cell-based, RSV Long strain; conditions: for Change in cell viability with time of addition: addition at time points between 7-24 hours post-infection
Experimental: Assay Description: HEp-2 cells were plated in 96 well black tissue culture plates at 10,000 cells per well in 80 μl and incubated 24 hours at 37° C., 5% CO2. All cell plating was conducted using a Matrix WellMate™ and cells were maintained at room temperature with stirring during the plating process. Compounds were diluted in media to give a final concentration of 25 μM and added to plates at −1, 0, 1, 4, 6, 20 and 24 hours post-infection (p.i.). The cells were infected with RSV Long strain at an MOI of 3 and the assay plates were incubated for six days at 37° C., 5% CO2 and 90% relative humidity.
The Cell Titer Glo® assay was used to determine viability of the cells. The assay plates were equilibrated to room temperature for 10 minutes and then an equal volume of Cell Titer-Glo reagent (Promega Inc.) was added to each well. Plates were incubated for 10 min at room temperature and luminescence was measured using a multi-label plate reader with an integration time of 0.1 s.
A cell-based assay was used to determine the ability of the probe to inhibit different stages of a single round of viral replication. […] Compounds B and F (diamonds and squares, respectively) are of similar chemical structure. The percent cell viability values at each time point for the respective molecules are compared with that of ribavirin (RBV). […] This sustained efficacy may be due to the inhibition of one or more late virus life cycle steps (post-entry or late-stage infection processes), and this hypothesis is supported by an ability to affect processes later in the viral replication cycle.

[3] = test system: Venezuelan equine encephalitis; format: cell-based
RSV [4] = test: RSV CPE assay (inhibition of RSV-induced cytopathic effect, luminescent cell viability readout); format: cell-based, RSV (strain Long); conditions: for Selectivity Index (CC50/EC50): antiviral activity over HEp-2 cell cytotoxicity
[5] = test system: Calcium Channel L-Type, Benzothiazepine; test: Ricerca LeadProfiling screen; format: binding; conditions: 10 μM, duplicate, rat
in vitro [6] = conditions: human
RSV [7] = test: RSV plaque reduction assay (titer reduction); format: cell-based, RSV Long strain; conditions: HEp-2 cells; for Plaque Reduction Assay (log reduction) at 10 μM: 10 μM test compound; for Plaque Reduction Assay (log reduction): concentration not given
influenza A = format: cell-based
[8] = test system: Calcium Channel L-Type, Dihydropyridine; test: Ricerca LeadProfiling screen; format: binding; conditions: 10 μM, duplicate, rat
HEp-2 cells = conditions: HEp-2 cell cytotoxicity
[9] = Stability in PBS over 48 h; conditions: for Stability in PBS (% parent remaining after 48 h), with acetonitrile: PBS with 50% acetonitrile; for Stability in PBS (% parent remaining after 48 h): no additives, 23° C.
physchem [10] = conditions: plasma or biological fluid
physchem [11] = conditions: 23 °C, pH 7.4, aqueous buffer
in vitro [12] = conditions: PAMPA
[13] = human respiratory syncytial virus, HEp-2 cells, RSV-induced CPE, read-out: CPE Assay EC50

| SMILES | Change in cell viability with time of addition (RSV [2]) | CC50 at 6 days (in vitro [6]; CC50, HEp-2 cell cytotoxicity) | Plaque Reduction Assay (log reduction) at 10 μM (RSV [7]) | Plaque Reduction Assay (log reduction) (RSV [7]) | EC50 (RSV [4]; [13]) | solubility (physchem [10]) | Selectivity Index (CC50/EC50) (RSV [4]) | solubility (physchem [11]) | also measured |
| --- | --- | --- | --- | --- | --- | --- | --- | --- | --- |
| COCCCNC(=O)c1ccc(Cn2c(=O)c3ccccc3n(Cc3ccc(C(C)C)cc3)c2=O)cc1 [Compound A, 4-((1-(4-isopropylbenzyl)-2,4-dioxo-1,2-dihydroquinazolin-3(4H)-yl)methyl)-N-(3-methoxypropyl)benzamide] | does not result in a dramatic change in cell viability | > 200 µM | 6.7 log reduction and 6.70 log reduction | 6.70 log reduction | – | – | – | – | Inhibition, all other targets [1]: below 34%; Efficacy in inhibiting vaccinia (vaccinia): no efficacy; Efficacy in inhibiting dengue viruses (dengue viruses): no efficacy; Latest effective time of addition (RSV [2]; single round of viral replication, compound added −1 to 24 h post-infection): > 24 hours post-infection; Efficacy in inhibiting Venezuelan equine encephalitis virus [3]: no efficacy; EC50 (RSV [4]; human respiratory syncytial virus, read-out: RSV CPE assay, repeated, repeat of the RSV CPE assay): 0.34 µM; EC50 (RSV [4]; read-out: CPE Assay EC50, HEp-2 cells, RSV-induced CPE): 0.81 µM; Percent Inhibition [5]: 52%; Efficacy in inhibiting influenza A (influenza A): no efficacy; Percent Inhibition [8]: 70% |
| COCCCNC(=O)c1ccc(Cn2c(=O)c3ccccc3n(Cc3ccc([N+](=O)[O-])cc3)c2=O)cc1 [Compound B, N-(3-methoxypropyl)-4-((1-(4-nitrobenzyl)-2,4-dioxo-1,2-dihydroquinazolin-3(4H)-yl)methyl)benzamide] | does not result in a dramatic change in cell viability | 128 ± 4.24 µM | >5.56 log reduction | >5.56^a log reduction | 0.57 ± 0.014 µM | – | – | – | CC50 (HEp-2 cells): > 128 µM; EC50 (RSV [4]; human respiratory syncytial virus, repeat of the RSV CPE assay, read-out: RSV CPE assay, repeated): 0.2 µM; Stability in PBS (% parent remaining after 48 h), with acetonitrile [9]: 94.9% (with; Stability in PBS (% parent remaining after 48 h) [9]: 83.4% (PBS); |
| COCCCNC(=O)c1ccc(Cn2c(=O)c3ccccc3n(Cc3ccc(Br)cc3)c2=O)cc1 [Compound C, 4-((1-(4-bromobenzyl)-2,4-dioxo-1,2-dihydroquinazolin-3(4H)-yl)methyl)-N-(3-methoxypropyl)benzamide] | – | 98.9 ± 8.7 µM | 4.07 log reduction | 4.07 log reduction | 0.85 ± 0.15 µM | 2.7 µg/mL and 5.03 µM | 118.9 | 0.31 µg/mL and 0.58 µM | Stability in PBS (% parent remaining after 48 h), with acetonitrile [9]: 100% (with; Stability in PBS (% parent remaining after 48 h) [9]: 57.5% (PBS); |
| CCc1ccc(Cn2c(=O)n(Cc3ccc(C(=O)NCCCOC)cc3)c(=O)c3ccccc32)cc1 [Compound D, 4-((1-(4-ethylbenzyl)-2,4-dioxo-1,2-dihydroquinazolin-3(4H)-yl)methyl)-N-(3-methoxypropyl)benzamide] | – | 94.9 ± 3.75 µM | 5.90 log reduction | 5.90 log reduction | 1 ± 0.05 µM | 1.5 µg/mL and 3.09 µM | 94.9 and 94.5 | – | – |
| CN(C)c1ccc(Cn2c(=O)n(Cc3ccc(C(=O)NCC4COC4)cc3)c(=O)c3ccccc32)cc1 [Compound E, 4-((1-(4-(dimethylamino)benzyl)-2,4-dioxo-1,2-dihydroquinazolin-3(4H)-yl)methyl)-N-(oxetan-3-ylmethyl)benzamide] | – | ~50 µM | >6.18 log reduction | >6.18 log reduction | 1.07 ± 0.22 µM | 9.2 µg/mL and 18.4 µM | 41.8 | 5.6 µg/mL and 11.2 µM | CC50 (HEp-2 cells): 44.7 ± 7.22 µM; Plaque Reduction Assay (log reduction) (RSV [7]; listed as FIG. 5, entry 7): > 6 log reduction |
| Cc1ccc(Cn2c(=O)n(Cc3ccc(C(=O)NCC4COC4)cc3)c(=O)c3ccccc32)cc1 [Compound F, 4-((1-(4-methylbenzyl)-2,4-dioxo-1,2-dihydroquinazolin-3(4H)-yl)methyl)-N-(oxetan-3-ylmethyl)benzamide] | does not result in a dramatic change in cell viability | – | 5.10 log reduction | 5.1 log reduction | 0.71 ± 0.13 µM | 4.5 µg/mL and 9.58 µM | – | 4.5 µg/mL and 0.75 µM | EC50 (RSV [4]; human respiratory syncytial virus, HEp-2 cells, read-out: CPE EC50 (potency) as given): ~0.7 µM |
| CNC(=C[N+](=O)[O-])NCCSCc1ccc(CN(C)C)o1 [Ranitidine] | – | – | – | – | – | – | – | – | Papp (in vitro [12]): < 10 ×10⁻⁶ cm/s; Papp (in vitro [12]; pH 7.4): < 10 ×10⁻⁶ cm/s |
| COCCCNC(=O)c1ccc(Cn2c(=O)c3ccccc3n(Cc3ccc(C)cc3)c2=O)cc1 [hit compound, 4-((1-(4-methylbenzyl)-2,4-dioxo-1,2-dihydroquinazolin-3(4H)-yl)methyl)-N-(3-methoxypropyl)benzamide] | – | 59.5 µM | – | 4.15 log reduction | 2.14 µM | – | – | – | – |
| NC(=O)c1ncn([C@@H]2O[C@H](CO)[C@@H](O)[C@H]2O)n1 [ribavirin, reference compound] | – | – | 2.47 log reduction | – | 28.4 µM | – | – | – | Protection of cells from RSV-induced CPE (RSV [2]; added up to 7 hours post-infection): approximately 100%; CC50 at 6 days (in vitro [6]): 114 ± 38.5 µM |
